Results: PubChem BioAssay AID2060500 (Molecular Pharmacology Branch, DTP, NCI, 2025)
Values joined by “and” are separate entries in the source; they are usually repeats but may differ in a detail not shown here. Identical values can stand only once.

Tested on: 596521-263-R-J1-PDC complex spheroids, viability % of control
Experiment: Anticancer human tumor 596521-263-R-J1-PDC patient-derived soft tissue sarcoma cell line growth inhibition [GQUAD]
Conditions: for viability, T/C: stronger effect = lower value
Description: DNA G-quadruplex Stabilizer Agents in Combinations in Complex Spheroids
A high-throughput screen of multi-cell type tumor spheroids was designed to identify active combinations of DNA G-quadruplex stabilizer agents and targeted small molecules. Complex spheroids include a stromal component modeled by human endothelial cells (HUVEC) and fibroblasts modeled by human mesenchymal stem cells (MSCs). The concentration ranges selected for each drug and investigational agent were based upon clinically achievable concentrations if the clinical Cmax of the agent was known.
Compounds. The drugs and investigational agents: pidnarulex (CX-5461; NSC782164), APTO-253 (NSC789042), BRACO-19 (NSC847499), peposertib (NSC802822), ceralasertib (NSC780249), elimusertib (NSC800525), camonsertib (NSC841442), AZD-1390 (NSC803789), olaparib (NSC753686), talazoparib (NSC767125), ART-558 (NSC835418), sotorasib (NSC818433), MRTX-1133 (NSC836407), SN-38 (NSC673596), topotecan (NSC609699), etoposide (NSC141540), doxorubicin (NSC123127), gemcitabine (NSC613327), 5-fluorouracil (NSC19893), paclitaxel (NSC125973), vemurafenib (NSC761431), panobinostat (NSC761190), R-306465 (JNJ-16241199; NSC773264), adavosertib (NSC754352), TP-3654 (NSC805149), carboplatin (NSC241240), KSQ-4279 (NSC840948), and staurosporine (NSC755774) were obtained from the National Cancer Institute (NCI) Developmental Therapeutics Program Chemical Repository (34). The FDA-approved anticancer drug set is available from the NCI Developmental Therapeutics Program. […] The stock solutions were prepared in dimethyl sulfoxide (DMSO, Sigma-Aldrich, St. Louis, MO, cat. D2650) at 800-fold the tested concentration and stored at -70 degrees C prior to their use. All drugs and investigational agents were tested over a range starting from a high concentration at or near the clinical Cmax and decreasing in half-log increments. If the clinical Cmax for an agent had not been determined, the highest concentration tested was 10 microM.
2.3 Cell Culture. All cells were maintained in an incubator at 37 degrees C and 5% CO2 with 95% humidity. The PDC lines were cultured according to standard operating procedures established by the NCI PDMR. All PDCs were thawed and cultured in Matrigel-coated flasks prepared with a working solution of 1X Ham's F-12 nutrient mix, without supplementation (Invitrogen, cat. 11765054), 100 U/mL penicillin-streptomycin (Invitrogen, cat. 15140122), and 2.5% Matrigel (Corning Inc., cat. 354248) for the first three passages. The 857933-349-R-J2-PDC line was cultured in 6C/Colon 1B media, which includes advanced DMEM/F-12 (Thermo Fisher Scientific, cat. 12634028), 10 mM HEPES (Thermo Fisher Scientific, cat. 15630080), 1X GlutaMAX supplement (Thermo Fisher Scientific, cat. 35050061), 0.1 mg/mL primocin (InvivoGen, cat. ant-pm-2), 10% defined fetal bovine serum, heat inactivated (HyClone Laboratories Inc., cat. SH30070.03HI), 50% L-WRN conditioned media (ATCC, cat. CRL-3276), 1.25 mM N-Acetyl-L-cysteine (Sigma-Aldrich, cat. A9165), 10 mM nicotinamide (Sigma-Aldrich, cat. N0636), 1X B-27 supplement (Thermo Fisher Scientific, cat. 17504044), 1X N-2 supplement (Thermo Fisher Scientific, cat. 17502048), 10 microM Y-27632 dihydrochloride (Tocris Bioscience, cat. 1254), and 50 ng/mL human EGF recombinant protein (Thermo Fisher Scientific, cat. PHG0311). The 485176-168-R4-J1-PDC line was cultured in Panc media, which includes all 6C/Colon 1B media components plus 100 ng/mL human FGF-10 (Thermo Fisher Scientific, cat. 100-26), 500 nM SB-431542 (Selleckchem, cat. S1067), and gastrin (Tocris, cat. 3006).
[…]

[1] = curve of first compound, second compound 0.0316 µM
[2] = curve of first compound, second compound 0.1 µM
[3] = curve of first compound, second compound 0.316 µM
[4] = curve of first compound, second compound 1 µM
[5] = curve of first compound, second compound 3.16 µM
[6] = curve of first compound, second compound 10 µM
[7] = second compound 0.0316 µM, first compound 0.0316 µM
[8] = second compound 0.0316 µM, first compound 0.1 µM
[9] = second compound 0.0316 µM, first compound 0.316 µM
[10] = second compound 0.0316 µM, first compound 1 µM
[11] = second compound 0.0316 µM, first compound 3.16 µM
[12] = second compound 0.0316 µM, first compound 10 µM
[13] = second compound 0.1 µM, first compound 0.0316 µM
[14] = second compound 0.1 µM, first compound 0.1 µM
[15] = second compound 0.1 µM, first compound 0.316 µM
[16] = second compound 0.1 µM, first compound 1 µM
[17] = second compound 0.1 µM, first compound 3.16 µM
[18] = second compound 0.1 µM, first compound 10 µM
[19] = second compound 0.316 µM, first compound 0.0316 µM
[20] = second compound 0.316 µM, first compound 0.1 µM
[21] = second compound 0.316 µM, first compound 0.316 µM
[22] = second compound 0.316 µM, first compound 1 µM
[23] = second compound 0.316 µM, first compound 3.16 µM
[24] = second compound 0.316 µM, first compound 10 µM
[25] = second compound 1 µM, first compound 0.0316 µM
[26] = second compound 1 µM, first compound 0.1 µM
[27] = second compound 1 µM, first compound 0.316 µM
[28] = second compound 1 µM, first compound 1 µM
[29] = second compound 1 µM, first compound 3.16 µM
[30] = second compound 1 µM, first compound 10 µM
[31] = second compound 3.16 µM, first compound 0.0316 µM
[32] = second compound 3.16 µM, first compound 0.1 µM
[33] = second compound 3.16 µM, first compound 0.316 µM
[34] = second compound 3.16 µM, first compound 1 µM
[35] = second compound 3.16 µM, first compound 3.16 µM
[36] = second compound 3.16 µM, first compound 10 µM
[37] = second compound 10 µM, first compound 0.0316 µM
[38] = second compound 10 µM, first compound 0.1 µM
[39] = second compound 10 µM, first compound 0.316 µM
[40] = second compound 10 µM, first compound 1 µM
[41] = second compound 10 µM, first compound 3.16 µM
[42] = second compound 10 µM, first compound 10 µM
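Note: spheroids exposed to drugs for 7 days before viability reading.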

With `CC(=O)O[C@H]1C(=O)[C@@]2(C)[C@H]([C@H](OC(=O)c3ccccc3)[C@]3(O)C[C@H](OC(=O)[C@H](O)[C@@H](NC(=O)c4ccccc4)c4ccccc4)C(C)=C1C3(C)C)[C@]1(OC(C)=O)CO[C@@H]1C[C@@H]2O` + CN(C)c1ccc(Nc2c3ccc(NC(=O)CCN4CCCC4)cc3nc3cc(NC(=O)CCN4CCCC4)ccc23)cc1 the IC50 [1] was under 31.6 nM, the IC50 [2] was under 31.6 nM and the IC50 [3] was under 31.6 nM. The IC50 [4] was under 31.6 nM, the IC50 [5] was under 31.6 nM and the IC50 [6] was under 31.6 nM. It also gave a viability, T/C [7] of 40.7%, a viability, T/C [8] of 27.7% and a viability, T/C [9] of 25.7%. For the same molecule, the viability, T/C [10] was 22.9%, the viability, T/C [11] was 26.8% and the viability, T/C [12] was 31.9%. For the same molecule, the viability, T/C [13] was 37.5%, the viability, T/C [14] was 25.6% and the viability, T/C [15] was 24.3%. It also gave a viability, T/C [16] of 28%, a viability, T/C [17] of 23.1% and a viability, T/C [18] of 26.6%. The viability, T/C [19] was 37.2%, the viability, T/C [20] was 27.4% and the viability, T/C [21] was 25.2%. For the same molecule, the viability, T/C [22] was 29.2%, the viability, T/C [23] was 29.3% and the viability, T/C [24] was 25.3%. For the same molecule, the viability, T/C [25] was 38.3%, the viability, T/C [26] was 29% and the viability, T/C [27] was 26.5%. It also gave a viability, T/C [28] of 25.2%, a viability, T/C [29] of 28.3% and a viability, T/C [30] of 27.5%. For the same molecule, the viability, T/C [31] was 35.6%, the viability, T/C [32] was 32.1% and the viability, T/C [33] was 26.9%. It also gave a viability, T/C [34] of 27.1%, a viability, T/C [35] of 27.3% and a viability, T/C [36] of 28.2%. It also gave a viability, T/C [37] of 34.3%, a viability, T/C [38] of 21.7% and a viability, T/C [39] of 21.4%. The viability, T/C [40] was 21.5%, the viability, T/C [41] was 21.6% and the viability, T/C [42] was 24.9%.
For `Cc1[nH]c2ccccc2c1CCNCc1ccc(/C=C/C(=O)NO)cc1`, the viability, T/C (compound 0.000999 µM) was 101% and 103% and 95.3%, the viability, T/C (compound 0.00316 µM) was 90.3% and 84.7% and 95.6% and the viability, T/C (compound 0.00999 µM) was 96.9% and 70% and 80.2%. The viability, T/C (compound 0.0316 µM) was 96.4% and 54% and 57.8%, the viability, T/C (compound 0.0999 µM) was 101% and 27.6% and 35.7% and the IC50 (curve of compound) was > 316 nM and 33.7 nM and 49.9 nM.
For `CC1COCCN1c1cc(C2(O)CC3CCC(C2)O3)c2cnn(-c3ccn[nH]3)c2n1` (centres undefined), the viability, T/C (compound 0.0316 µM) was 68.2% and 80.2% and 69%, the viability, T/C (compound 0.1 µM) was 66.9% and 48.7% and 53.4% and the viability, T/C (compound 0.316 µM) was 39.5% and 49.8% and 44.3%. The viability, T/C (compound 1 µM) was 32.1% and 33.8% and 33.2%, the viability, T/C (compound 3.16 µM) was 21.9% and 25.7% and 22.9% and the viability, T/C (compound 10 µM) was 12.9% and 16.6% and 12.2%. The IC50 (curve of compound) was 226 nM and 195 nM and 173 nM.
With `Nc1ccn(C2OC(CO)C(O)C2(F)F)c(=O)n1` (centres undefined) the viability, T/C (compound 0.0316 µM) was 53.5% and 48% and 59.9%, the viability, T/C (compound 0.1 µM) was 35.8% and 49.4% and 43.2% and the viability, T/C (compound 0.316 µM) was 45% and 45.2% and 42.6%. For the same molecule, the viability, T/C (compound 1 µM) was 42.5% and 40.8% and 52%, the viability, T/C (compound 3.16 µM) was 42.5% and 38.6% and 49.9% and the viability, T/C (compound 10 µM) was 33.4% and 33.3% and 40.1%. For the same molecule, the IC50 (curve of compound) was < 31.6 nM and 35.4 nM and 168 nM.
`CC(C)n1c(=O)n(C)c2cnc3cc(F)c(-c4ccc(OCCCN5CCCCC5)nc4)cc3c21` + Cc1[nH]c2ccc(F)cc2c1-c1nc2c3cccnc3c3ncccc3c2[nH]1 gave an IC50 [1] of over 10000 nM, an IC50 [2] of over 10000 nM and an IC50 [3] of over 10000 nM. For the same molecule, the IC50 [4] was over 10000 nM, the IC50 [5] was over 10000 nM and the IC50 [6] was over 10000 nM. It also gave a viability, T/C [7] of 100%, a viability, T/C [8] of 82.2% and a viability, T/C [9] of 81.5%. The viability, T/C [10] was 87.1%, the viability, T/C [11] was 80% and the viability, T/C [12] was 73.4%. The viability, T/C [13] was 95%, the viability, T/C [14] was 112% and the viability, T/C [15] was 91%. The viability, T/C [16] was 93.9%, the viability, T/C [17] was 86% and the viability, T/C [18] was 64.9%. It also gave a viability, T/C [19] of 106%, a viability, T/C [20] of 102% and a viability, T/C [21] of 91.4%. For the same molecule, the viability, T/C [22] was 83.7%, the viability, T/C [23] was 81.9% and the viability, T/C [24] was 57.6%. It also gave a viability, T/C [25] of 85%, a viability, T/C [26] of 89% and a viability, T/C [27] of 97%. For the same molecule, the viability, T/C [28] was 89.4%, the viability, T/C [29] was 86.8% and the viability, T/C [30] was 72.1%. It also gave a viability, T/C [31] of 87.9%, a viability, T/C [32] of 90.3% and a viability, T/C [33] of 81.4%. For the same molecule, the viability, T/C [34] was 76.3%, the viability, T/C [35] was 80.6% and the viability, T/C [36] was 53%. For the same molecule, the viability, T/C [37] was 74.4%, the viability, T/C [38] was 78.6% and the viability, T/C [39] was 79.8%. For the same molecule, the viability, T/C [40] was 79.1%, the viability, T/C [41] was 62.1% and the viability, T/C [42] was 50.7%.
